ChEMBL document CHEMBL1201862, “PubChem BioAssay data set” (2004)
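These data come from cells grown in 96-well plates and exposed to compound for 48 hours at five concentrations. GI50: concentration for 50% inhibition of growth.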 Activity calls are given as the source filed them. Cut-off read from the data, not from the text of the source: active = GI50 up to about 1.1 µM and inactive = higher.

Tests used:
Assay in all cases: NCI anticancer screen, dose series, 48 h
[1] = test system: DLD-1
[2] = test system: DU-145
[3] = test system: HCC 2998
[4] = test system: HOP-92
[5] = test system: HT-29
[6] = test system: Hs-578T
[7] = test system: MCF7
[8] = test system: MOLT-4
[9] = test system: Malme-3M
[10] = test system: NCI-H226
[11] = test system: NCI-H23
[12] = test system: NCI-H460
[13] = test system: OVCAR-4
[14] = test system: OVCAR-8
[15] = test system: RPMI-8226
[16] = test system: RXF 393
[17] = test system: SK-MEL-5
[18] = test system: SN12C
[19] = test system: T47D
[20] = test system: UACC-257

Row | SMILES | GI50 [1] | GI50 [2] | GI50 [3] | GI50 [4] | GI50 [5] | GI50 [6] | GI50 [7] | GI50 [8] | GI50 [9] | GI50 [10] | GI50 [11] | GI50 [12] | GI50 [13] | GI50 [14] | GI50 [15] | GI50 [16] | GI50 [17] | GI50 [18] | GI50 [19] | GI50 [20]
1 | CN1C(c2ccccc2)CC(=NOCc2ccccc2)CC1c1ccccc1 (centres undefined) | 46.7 µM (inactive) | 47.6 µM (inactive) | > 71.9 µM (inactive) | 48.9 µM (inactive) | 26.2 µM (inactive) | 36 µM (inactive) | 18.6 µM (inactive) | 23.7 µM (inactive) | 50.9 µM (inactive) | 52.8 µM (inactive) | 28.2 µM (inactive) | 19.1 µM (inactive) | 22.5 µM (inactive) | 21.5 µM (inactive) | 37.2 µM (inactive) | 54.5 µM (inactive) | 33.7 µM (inactive) | 44.6 µM (inactive) | 17.7 µM (inactive) | 64.7 µM (inactive)
2 | COc1c(C)c2c(c(O)c1C/C=C(\C)CCC(=O)O)C(=O)OC2 [MYCOPHENOLIC ACID] | 0.57 µM (active) | > 100 µM (inactive) | 3.94 µM (inactive) | 4.68 µM (inactive) | 0.867 µM (active) | 2.51 µM (inactive) | 0.376 µM (active) | 0.326 µM (active) | – | > 46.9 µM (inactive) | 0.471 µM (active) | 0.488 µM (active) | > 21.8 µM (inactive) | 1.08 µM (active) | 1.7 µM (inactive) | 2.78 µM (inactive) | 1.02 µM (active) | 4.1 µM (inactive) | 7.33 µM (inactive) | 4.51 µM (inactive)
